Reference: ChEMBL document CHEMBL1201862, “PubChem BioAssay data set” (2004)
Calls of active or inactive are those of the source.

Key:
Caspase-6 = Caspase-6 (Homo sapiens, UniProt P55212); experiment: inhibition of CASP6 peptide cleavage – biochemical, VEID-R110 fluorescence, cherry-pick, dose response (AID 720632)
Caspase-7 = Caspase-7 (Homo sapiens, UniProt P55210); experiment: caspase-7 enzyme inhibition, selectivity check – biochemical, DEVD-R110 fluorescence, cherry-pick, selectivity assay for caspase-6 inhibitor project, dose response (AID 743295); assay type: functional
Sequence of Caspase-7 (P55210 24-198 limits assumed): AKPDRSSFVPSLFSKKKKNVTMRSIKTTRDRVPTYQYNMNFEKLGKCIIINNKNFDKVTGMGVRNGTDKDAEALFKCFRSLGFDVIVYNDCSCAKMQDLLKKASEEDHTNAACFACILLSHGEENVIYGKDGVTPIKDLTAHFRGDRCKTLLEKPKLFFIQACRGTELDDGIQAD
Sequence of Caspase-7 (P55210 207-303 limits assumed): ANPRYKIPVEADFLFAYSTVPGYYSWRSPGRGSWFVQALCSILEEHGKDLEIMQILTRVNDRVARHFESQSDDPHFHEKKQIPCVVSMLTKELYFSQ

[1] = reduction of Shn3 3'UTR-driven luciferase in osteoblasts – cell-based, Clone20 osteoblasts, firefly luciferase, cherry-picked, dose response (AID 624132); assay type: functional;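 note: firefly luciferase luminescence from reporter carrying the Shn3 3'UTR in osteoblasts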
[2] = loss of viability in HepG2 cells – cell-based, CellTiter-Glo, cherry-picked, cytotoxicity control for Shn3 inhibitor project, dose response (AID 624134); assay type: functional
[3] = non-specific 3'UTR reporter inhibition in Clone20-Shn3RL – cell-based, Renilla luciferase, cherry-picked, counter-screen for Shn3 inhibitor project, dose response (AID 624133); assay type: functional
[4] = Shn3 3'UTR reporter signal decrease – cell-based, Clone20 osteoblasts, firefly luciferase, cherry-pick, set 2, Schnurri-3 inhibitor project, dose response (AID 720490); assay type: functional;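 note: actives lower the luminescence signal as inhibitors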
[5] = biological target: Induced myeloid leukemia cell differentiation protein Mcl-1 (Homo sapiens, UniProt Q07820); assay type: functional
Sequence of Induced myeloid leukemia cell differentiation protein Mcl-1 (Q07820 whole entry): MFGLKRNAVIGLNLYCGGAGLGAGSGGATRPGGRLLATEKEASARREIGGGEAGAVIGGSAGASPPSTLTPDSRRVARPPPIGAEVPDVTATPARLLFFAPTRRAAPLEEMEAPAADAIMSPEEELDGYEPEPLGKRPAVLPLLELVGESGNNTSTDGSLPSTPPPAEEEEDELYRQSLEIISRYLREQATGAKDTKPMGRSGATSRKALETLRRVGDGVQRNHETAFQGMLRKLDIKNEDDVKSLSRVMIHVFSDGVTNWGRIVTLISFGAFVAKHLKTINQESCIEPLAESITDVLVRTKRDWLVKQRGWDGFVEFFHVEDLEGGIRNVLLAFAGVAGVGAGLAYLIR

ORF 73 = ORF 73 (Human herpesvirus 8, UniProt O40947); experiment: KSHV LANA DNA-binding disruption – biochemical, fluorescence polarization, cherry-picked samples, dose response (AID 504725); design: species or system Human gammaherpesvirus 8;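 note: fluorescence polarization of a labeled DNA duplex reporting LANA DNA binding; potency is for inhibitors that block LANA binding to the DNA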
Sequence of ORF 73 (O40947 whole entry): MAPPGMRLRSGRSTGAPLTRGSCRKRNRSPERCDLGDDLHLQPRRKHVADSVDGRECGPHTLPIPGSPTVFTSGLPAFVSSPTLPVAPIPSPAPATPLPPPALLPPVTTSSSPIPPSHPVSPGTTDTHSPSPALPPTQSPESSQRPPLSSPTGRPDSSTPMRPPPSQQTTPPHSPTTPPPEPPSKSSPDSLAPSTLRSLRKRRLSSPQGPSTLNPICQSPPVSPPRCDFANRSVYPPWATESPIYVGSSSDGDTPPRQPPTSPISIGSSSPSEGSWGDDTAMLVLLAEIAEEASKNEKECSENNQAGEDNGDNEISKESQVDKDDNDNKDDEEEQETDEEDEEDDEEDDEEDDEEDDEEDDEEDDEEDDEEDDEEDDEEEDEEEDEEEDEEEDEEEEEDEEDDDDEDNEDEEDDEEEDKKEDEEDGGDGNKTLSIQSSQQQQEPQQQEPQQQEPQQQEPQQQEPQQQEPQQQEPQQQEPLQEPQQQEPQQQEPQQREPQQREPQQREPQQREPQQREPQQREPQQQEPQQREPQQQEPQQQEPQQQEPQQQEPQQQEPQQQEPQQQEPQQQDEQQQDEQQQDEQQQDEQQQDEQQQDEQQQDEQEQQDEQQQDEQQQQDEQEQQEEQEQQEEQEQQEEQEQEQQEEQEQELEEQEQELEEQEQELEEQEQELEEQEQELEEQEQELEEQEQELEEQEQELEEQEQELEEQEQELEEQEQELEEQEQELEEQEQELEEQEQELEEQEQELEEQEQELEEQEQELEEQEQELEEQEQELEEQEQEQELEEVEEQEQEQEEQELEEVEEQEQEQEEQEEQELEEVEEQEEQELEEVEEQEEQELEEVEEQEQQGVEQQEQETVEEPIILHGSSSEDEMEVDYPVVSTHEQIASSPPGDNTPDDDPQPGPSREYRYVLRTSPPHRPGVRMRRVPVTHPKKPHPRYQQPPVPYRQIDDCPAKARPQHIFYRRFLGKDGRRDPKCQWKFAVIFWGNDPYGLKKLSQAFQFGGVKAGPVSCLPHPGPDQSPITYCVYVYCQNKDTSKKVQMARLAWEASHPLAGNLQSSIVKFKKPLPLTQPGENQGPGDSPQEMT

[6] = biological target: Intestinal-type alkaline phosphatase (Mus musculus, UniProt P24822); experiment: PubChem AID 488785; assay type: functional
[7] = biological target: T1, Alkaline phosphatase, tissue-nonspecific isozyme (Homo sapiens, UniProt P05186); experiment: TNAP enzyme inhibition by screening hits, dose response, selectivity assay for mouse IAP inhibitor project, biochemical, human TNAP, uHTS hits (AID 488906); assay type: functional
T1 sequence (P05186 whole entry): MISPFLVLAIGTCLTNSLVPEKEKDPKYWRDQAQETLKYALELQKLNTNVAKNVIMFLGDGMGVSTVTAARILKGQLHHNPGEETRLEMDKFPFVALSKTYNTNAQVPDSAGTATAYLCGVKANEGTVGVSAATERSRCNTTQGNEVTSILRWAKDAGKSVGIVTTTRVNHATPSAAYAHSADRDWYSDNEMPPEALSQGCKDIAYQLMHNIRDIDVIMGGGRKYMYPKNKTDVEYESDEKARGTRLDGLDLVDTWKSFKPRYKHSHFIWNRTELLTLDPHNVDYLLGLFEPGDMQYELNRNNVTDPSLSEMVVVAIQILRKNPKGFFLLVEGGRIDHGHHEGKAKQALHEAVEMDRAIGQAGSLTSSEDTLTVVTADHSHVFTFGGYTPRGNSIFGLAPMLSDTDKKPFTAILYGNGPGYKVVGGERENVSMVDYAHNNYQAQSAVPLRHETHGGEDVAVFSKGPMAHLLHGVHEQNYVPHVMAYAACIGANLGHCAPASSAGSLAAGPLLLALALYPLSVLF

[8] = biological target: Intestinal-type alkaline phosphatase (Homo sapiens, UniProt P09923); experiment: inhibition of human intestinal alkaline phosphatase – biochemical, dose response (AID 488876); assay type: functional
[9] = biological target: Histone-lysine N-methyltransferase NSD2 (Homo sapiens, UniProt O96028); assay type: biochemical
Sequence of Histone-lysine N-methyltransferase NSD2 (O96028 whole entry): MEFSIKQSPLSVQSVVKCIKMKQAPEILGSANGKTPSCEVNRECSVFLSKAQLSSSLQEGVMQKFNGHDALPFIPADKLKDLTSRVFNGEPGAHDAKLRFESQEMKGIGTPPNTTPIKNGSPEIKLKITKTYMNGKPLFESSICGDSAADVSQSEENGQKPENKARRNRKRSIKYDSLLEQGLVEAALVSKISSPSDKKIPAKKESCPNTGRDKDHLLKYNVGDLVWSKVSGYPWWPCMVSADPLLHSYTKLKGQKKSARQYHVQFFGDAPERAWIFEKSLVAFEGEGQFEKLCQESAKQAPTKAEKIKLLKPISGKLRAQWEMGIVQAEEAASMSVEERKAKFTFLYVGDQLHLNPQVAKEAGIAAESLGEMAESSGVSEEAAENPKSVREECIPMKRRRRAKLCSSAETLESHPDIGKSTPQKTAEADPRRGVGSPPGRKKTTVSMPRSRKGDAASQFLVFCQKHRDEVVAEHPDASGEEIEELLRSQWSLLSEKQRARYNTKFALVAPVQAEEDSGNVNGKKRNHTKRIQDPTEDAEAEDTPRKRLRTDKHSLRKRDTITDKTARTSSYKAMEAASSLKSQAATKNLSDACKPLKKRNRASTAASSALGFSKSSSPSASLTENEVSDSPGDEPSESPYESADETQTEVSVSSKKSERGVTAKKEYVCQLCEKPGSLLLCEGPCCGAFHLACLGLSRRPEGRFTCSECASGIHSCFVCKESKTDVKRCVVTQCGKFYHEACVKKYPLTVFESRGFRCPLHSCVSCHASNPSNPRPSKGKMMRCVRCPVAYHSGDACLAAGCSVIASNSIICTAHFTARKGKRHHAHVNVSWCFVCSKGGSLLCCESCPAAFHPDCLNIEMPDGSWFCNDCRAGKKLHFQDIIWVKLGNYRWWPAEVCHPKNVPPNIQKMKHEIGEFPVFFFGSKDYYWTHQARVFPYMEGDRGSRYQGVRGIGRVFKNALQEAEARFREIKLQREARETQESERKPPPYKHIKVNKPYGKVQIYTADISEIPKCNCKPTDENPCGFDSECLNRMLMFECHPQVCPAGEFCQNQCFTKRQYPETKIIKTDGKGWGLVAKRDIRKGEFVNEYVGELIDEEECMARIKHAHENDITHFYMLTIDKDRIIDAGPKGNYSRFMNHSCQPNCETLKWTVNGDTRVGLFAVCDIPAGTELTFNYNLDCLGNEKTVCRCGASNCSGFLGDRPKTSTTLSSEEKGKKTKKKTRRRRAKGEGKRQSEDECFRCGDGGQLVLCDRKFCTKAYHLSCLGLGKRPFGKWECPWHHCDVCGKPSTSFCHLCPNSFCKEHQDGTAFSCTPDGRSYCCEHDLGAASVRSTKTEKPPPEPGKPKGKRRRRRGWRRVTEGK

[10] = biological target: 1-phosphatidylinositol 4,5-bisphosphate phosphodiesterase gamma-1 (Homo sapiens, UniProt P19174); experiment: Counterscreen for inhibitors of phospholipase C isozymes (PLC-B3): Fluorescence-based biochemical high throughput dose response assay to identify inhibitors of phospholipase C isozymes (PLC-gamma1).
Sequence of 1-phosphatidylinositol 4,5-bisphosphate phosphodiesterase gamma-1 (P19174 whole entry): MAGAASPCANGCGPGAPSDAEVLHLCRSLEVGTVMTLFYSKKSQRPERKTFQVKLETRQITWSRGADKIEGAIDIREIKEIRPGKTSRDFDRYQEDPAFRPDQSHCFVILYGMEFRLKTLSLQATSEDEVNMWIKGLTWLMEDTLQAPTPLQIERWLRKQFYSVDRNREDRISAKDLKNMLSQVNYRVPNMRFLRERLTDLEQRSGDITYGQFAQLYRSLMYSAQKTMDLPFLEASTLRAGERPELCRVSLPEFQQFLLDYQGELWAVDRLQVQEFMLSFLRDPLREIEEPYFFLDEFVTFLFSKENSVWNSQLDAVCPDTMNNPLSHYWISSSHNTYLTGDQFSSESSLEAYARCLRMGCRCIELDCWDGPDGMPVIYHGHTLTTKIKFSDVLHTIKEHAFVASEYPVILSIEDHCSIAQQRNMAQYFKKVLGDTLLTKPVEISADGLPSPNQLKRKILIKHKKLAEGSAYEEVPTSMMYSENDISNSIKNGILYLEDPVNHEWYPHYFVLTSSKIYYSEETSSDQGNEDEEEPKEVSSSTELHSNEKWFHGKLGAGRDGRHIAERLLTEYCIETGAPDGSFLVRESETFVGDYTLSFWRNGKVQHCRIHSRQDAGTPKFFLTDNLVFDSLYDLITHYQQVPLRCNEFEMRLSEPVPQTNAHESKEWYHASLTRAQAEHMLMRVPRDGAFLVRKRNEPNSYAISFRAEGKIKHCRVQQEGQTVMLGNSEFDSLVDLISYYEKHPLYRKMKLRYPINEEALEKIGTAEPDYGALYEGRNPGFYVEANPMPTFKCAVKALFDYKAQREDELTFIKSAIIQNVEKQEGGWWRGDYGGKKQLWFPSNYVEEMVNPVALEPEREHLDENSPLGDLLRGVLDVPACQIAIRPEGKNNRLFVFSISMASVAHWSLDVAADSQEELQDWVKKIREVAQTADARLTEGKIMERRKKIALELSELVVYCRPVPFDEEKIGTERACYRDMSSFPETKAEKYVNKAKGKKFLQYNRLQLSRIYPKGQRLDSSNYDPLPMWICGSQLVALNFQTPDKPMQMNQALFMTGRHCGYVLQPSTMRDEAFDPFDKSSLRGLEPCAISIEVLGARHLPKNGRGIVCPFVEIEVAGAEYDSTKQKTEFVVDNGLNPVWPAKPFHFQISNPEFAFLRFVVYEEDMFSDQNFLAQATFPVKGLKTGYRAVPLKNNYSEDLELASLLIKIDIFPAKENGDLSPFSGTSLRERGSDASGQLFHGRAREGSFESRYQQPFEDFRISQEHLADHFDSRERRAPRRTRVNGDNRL

[11] = biological target: 1-phosphatidylinositol 4,5-bisphosphate phosphodiesterase beta-3 (Homo sapiens, UniProt Q01970); experiment: Fluorescence-based biochemical high throughput dose response assay to identify inhibitors of phospholipase C isozymes (PLC-B3).
[12] = biological target: T2, Replicative DNA helicase DnaB (Mycobacterium tuberculosis, UniProt P9WMR3); experiment: DnaB intein splicing inhibitors, dose response, biochemical, cell-free fluorescence (AID 449749); assay type: functional
T2 sequence (P9WMR3 whole entry): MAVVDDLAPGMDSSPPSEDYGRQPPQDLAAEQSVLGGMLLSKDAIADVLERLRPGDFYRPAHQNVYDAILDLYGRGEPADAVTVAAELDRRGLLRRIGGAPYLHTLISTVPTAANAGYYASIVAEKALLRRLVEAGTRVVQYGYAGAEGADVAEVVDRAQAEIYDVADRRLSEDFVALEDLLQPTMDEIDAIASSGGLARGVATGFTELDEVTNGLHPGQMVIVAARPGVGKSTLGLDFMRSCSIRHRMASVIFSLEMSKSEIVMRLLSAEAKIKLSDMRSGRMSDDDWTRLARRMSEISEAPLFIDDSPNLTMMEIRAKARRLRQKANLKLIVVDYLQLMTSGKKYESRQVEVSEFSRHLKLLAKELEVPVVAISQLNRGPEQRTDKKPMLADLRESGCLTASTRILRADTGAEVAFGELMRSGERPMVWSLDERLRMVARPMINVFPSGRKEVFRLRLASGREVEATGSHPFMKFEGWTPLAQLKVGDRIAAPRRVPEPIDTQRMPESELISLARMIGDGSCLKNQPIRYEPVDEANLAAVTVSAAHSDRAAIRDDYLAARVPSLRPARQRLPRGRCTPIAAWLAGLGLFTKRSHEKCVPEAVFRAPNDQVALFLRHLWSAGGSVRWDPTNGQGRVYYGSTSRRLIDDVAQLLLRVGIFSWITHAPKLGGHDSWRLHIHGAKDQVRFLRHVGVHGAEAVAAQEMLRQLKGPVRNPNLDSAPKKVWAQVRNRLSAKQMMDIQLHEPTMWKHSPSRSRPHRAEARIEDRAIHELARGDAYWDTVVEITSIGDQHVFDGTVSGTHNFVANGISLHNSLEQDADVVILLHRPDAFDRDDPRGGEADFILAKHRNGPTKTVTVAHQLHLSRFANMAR

[13] = biological target: T3, Apoptotic protease-activating factor 1 (Homo sapiens, UniProt O14727); assay type: functional
T3 sequence (O14727 whole entry): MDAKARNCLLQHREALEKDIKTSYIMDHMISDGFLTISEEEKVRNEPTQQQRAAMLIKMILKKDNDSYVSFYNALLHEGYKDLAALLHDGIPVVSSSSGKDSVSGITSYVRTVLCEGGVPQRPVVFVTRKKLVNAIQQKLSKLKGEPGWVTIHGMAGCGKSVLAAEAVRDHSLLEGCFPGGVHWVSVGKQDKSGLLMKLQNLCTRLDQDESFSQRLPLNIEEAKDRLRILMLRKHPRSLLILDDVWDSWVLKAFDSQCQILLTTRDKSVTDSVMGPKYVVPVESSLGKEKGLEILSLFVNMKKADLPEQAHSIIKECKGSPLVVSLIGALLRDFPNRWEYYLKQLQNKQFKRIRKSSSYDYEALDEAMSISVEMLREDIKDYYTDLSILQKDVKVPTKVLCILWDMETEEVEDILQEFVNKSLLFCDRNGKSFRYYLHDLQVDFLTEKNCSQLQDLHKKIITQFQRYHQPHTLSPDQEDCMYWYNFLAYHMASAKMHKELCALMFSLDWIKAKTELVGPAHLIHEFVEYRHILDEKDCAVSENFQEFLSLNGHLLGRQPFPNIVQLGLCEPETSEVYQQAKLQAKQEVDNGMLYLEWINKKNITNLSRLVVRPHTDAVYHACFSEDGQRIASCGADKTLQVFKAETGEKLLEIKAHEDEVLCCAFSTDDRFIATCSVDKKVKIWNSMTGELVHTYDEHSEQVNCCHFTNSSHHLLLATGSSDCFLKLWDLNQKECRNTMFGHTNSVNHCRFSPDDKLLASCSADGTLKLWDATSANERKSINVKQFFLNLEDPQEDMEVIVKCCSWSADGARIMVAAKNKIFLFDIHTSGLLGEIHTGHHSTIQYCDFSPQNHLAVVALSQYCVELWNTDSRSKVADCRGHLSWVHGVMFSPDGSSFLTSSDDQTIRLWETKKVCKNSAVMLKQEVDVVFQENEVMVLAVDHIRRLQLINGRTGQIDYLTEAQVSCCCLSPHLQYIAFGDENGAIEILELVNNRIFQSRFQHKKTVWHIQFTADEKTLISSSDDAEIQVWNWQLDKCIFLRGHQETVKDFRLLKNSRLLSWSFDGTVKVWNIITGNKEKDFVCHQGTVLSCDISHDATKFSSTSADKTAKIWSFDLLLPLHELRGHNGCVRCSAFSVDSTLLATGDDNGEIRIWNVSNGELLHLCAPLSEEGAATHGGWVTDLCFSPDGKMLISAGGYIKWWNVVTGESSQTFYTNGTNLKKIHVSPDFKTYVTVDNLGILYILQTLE

Protein RecA = biological target: T4, Protein RecA (Mycobacterium tuberculosis, UniProt P9WHJ3); experiment: Fluorescence Cell-Free Homogeneous Dose Retest to Identify Inhibitors of RecA-Intein Splicing Activity. [Related pubchem assays (depositor defined):AID2097, AID2223, AID489010, AID492950]; assay type: functional
T4 sequence (P9WHJ3 whole entry): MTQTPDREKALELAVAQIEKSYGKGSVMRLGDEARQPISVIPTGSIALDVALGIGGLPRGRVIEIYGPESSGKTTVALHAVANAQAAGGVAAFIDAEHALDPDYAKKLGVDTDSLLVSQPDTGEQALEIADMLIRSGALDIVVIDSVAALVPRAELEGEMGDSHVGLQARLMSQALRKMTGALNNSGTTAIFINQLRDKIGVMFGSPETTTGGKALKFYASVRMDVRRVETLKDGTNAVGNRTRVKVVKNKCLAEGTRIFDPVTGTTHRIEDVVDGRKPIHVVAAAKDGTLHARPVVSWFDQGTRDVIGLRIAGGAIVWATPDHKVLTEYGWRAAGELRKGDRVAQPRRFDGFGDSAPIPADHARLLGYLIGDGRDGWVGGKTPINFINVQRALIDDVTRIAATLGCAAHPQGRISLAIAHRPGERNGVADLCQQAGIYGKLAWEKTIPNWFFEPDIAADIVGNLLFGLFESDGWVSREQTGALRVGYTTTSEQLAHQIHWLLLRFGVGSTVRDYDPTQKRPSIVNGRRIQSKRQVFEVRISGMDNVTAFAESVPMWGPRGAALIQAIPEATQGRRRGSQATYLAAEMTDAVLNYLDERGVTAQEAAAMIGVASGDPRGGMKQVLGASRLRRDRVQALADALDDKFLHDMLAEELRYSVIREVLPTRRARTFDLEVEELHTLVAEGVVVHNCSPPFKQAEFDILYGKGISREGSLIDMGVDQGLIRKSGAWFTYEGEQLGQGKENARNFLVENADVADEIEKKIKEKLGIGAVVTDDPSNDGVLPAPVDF

[14] = biological target: Tyrosyl-DNA phosphodiesterase 2 (Homo sapiens, UniProt O95551); experiment: potency against TDP2 phosphodiesterase activity – biochemical, epi absorbance, IC50, dose response (AID 743297)
Sequence of Tyrosyl-DNA phosphodiesterase 2 (O95551 whole entry): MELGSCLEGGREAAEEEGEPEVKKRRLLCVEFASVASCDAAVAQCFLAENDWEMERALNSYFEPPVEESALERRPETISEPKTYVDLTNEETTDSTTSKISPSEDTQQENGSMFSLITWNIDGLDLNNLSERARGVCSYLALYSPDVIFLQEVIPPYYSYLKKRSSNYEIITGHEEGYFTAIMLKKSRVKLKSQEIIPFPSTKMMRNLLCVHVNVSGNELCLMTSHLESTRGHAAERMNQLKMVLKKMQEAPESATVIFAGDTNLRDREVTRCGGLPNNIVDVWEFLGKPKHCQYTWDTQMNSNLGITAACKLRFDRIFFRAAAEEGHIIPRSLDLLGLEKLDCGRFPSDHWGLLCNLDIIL

[15] = viability loss in MITF-independent A375 cells – cell-based, CellTiter-Glo luminescence, dry powder, set 2, counter-screen for MITF inhibitor project, dose response (AID 624489); assay type: functional; conditions: A-375;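 note: actives are compounds lowering A375 viability meaning general cytotoxicity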
[16] = mouse embryonic fibroblast toxicity – cell-based, plate reader, dry powder, set 2, cytotoxicity control, dose response (AID 652280); assay type: functional; conditions: NIH3T3
[17] = T. cruzi growth inhibition in host cells, dose response, cell-based, plate reader, dry powder, set 2 (AID 652275); assay type: functional
[18] = CTGF mRNA reduction in DLD1 cells – cell-based, DLD1 colon cancer, RT-qPCR, cherry-pick, dose response (AID 1053122); assay type: functional; conditions: Cancer cell lines
[19] = HEK293T viability loss – cell-based, ATP luminescence, dry powder, Set6, cytotoxicity control, dose response (AID 743142); assay type: functional; conditions: HEK293
[20] = viability loss in A549 lung cancer cells – cell-based, CellTiter-Glo luminescence, dry powder, set 3, cytotoxicity control, dose response (AID 743146); assay type: functional
[21] = liver cell line viability loss – HepG2, luminescence plate reader, powder samples, set 2, cytotoxicity control, dose response (AID 651860); assay type: functional, cell-based

Sequence of Caspase-6 (P55212 24-179 limits assumed): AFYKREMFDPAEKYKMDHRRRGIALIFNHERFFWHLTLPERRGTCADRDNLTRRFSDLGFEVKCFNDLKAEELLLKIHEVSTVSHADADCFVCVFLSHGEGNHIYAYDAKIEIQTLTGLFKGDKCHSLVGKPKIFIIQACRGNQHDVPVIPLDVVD
Sequence of Caspase-6 (P55212 194-293 limits assumed): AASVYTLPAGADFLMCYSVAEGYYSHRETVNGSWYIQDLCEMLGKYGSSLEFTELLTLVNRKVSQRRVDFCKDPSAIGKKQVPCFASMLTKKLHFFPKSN

Compound: O=C(O)CCc1ccc(-c2ccc(Br)cc2)n1CC(=O)O
- AC50 (Caspase-6): 3.5 µM (active)
- AC50 (Caspase-7): > 70 µM (inactive)

Compound: CCn1c(CNC(=O)c2cc(OC)c(OC)c(OC)c2)cc2cc(C)ccc21
- AC50 [1]: 2.52 µM (active)
- AC50 [2]: > 70 µM (inactive)
- AC50 [3]: 13.4 µM (active)
- AC50 [4]: 3.79 µM (active)

Compound: O=C(O)CCCN1C(=O)/C(=C/C=C/c2ccco2)SC1=S
- IC50 [5]: 19.3 µM (not active)
- AC50 (ORF 73): 175 µM (active)
- IC50 [6]: 1.4 µM (active)
- IC50 [7]: 39.1 µM (active)
- IC50 [8]: > 100 µM (inactive)
- AC50 [9]: 2.42 µM (active)
- IC50 [10]: > 122 µM (inactive)
- IC50 [11]: > 122 µM (inactive)

Compound: Cc1ccc(C(C[N+](=O)[O-])c2c(C)[nH]n(-c3ccccc3)c2=O)cc1 (stereo not given)
- AC50 [12]: 3.52 µM (active)
- IC50 [13]: 24.1 µM (active)
- EC50 (Protein RecA): 3.16 µM (active)
- IC50 [14]: 24.2 µM (inactive)

Compound: C=CCNC1=C(NCCCN2CCOCC2)C(=O)c2ccccc2C1=O
- AC50 [15]: > 70 µM (inactive)

Compound: CC(C)(O)C#Cc1cccc(-c2nc(C(=O)NCc3ccc4c(c3)OCO4)cc3c2[C@@H](CCO)N([S+]([O-])C(C)(C)C)C3)c1 (stereo not given in full)
- AC50 [16]: 12.1 µM (active)
- AC50 [17]: 3.93 µM (active)

Compound: C[C@@H]1CN([C@H](C)CO)S(=O)(=O)c2ccc(C#Cc3cccc(F)c3)cc2O[C@@H]1CN(C)S(=O)(=O)c1cn(C)cn1
- AC50 [18]: 3.47 µM (active)

Compound: O=C(CCNC(=O)c1ccc(Cl)cc1)N[C@@H]1CCCc2ccccc21
- AC50 [19]: 4.12 µM (active)
- AC50 [20]: > 52 µM (inactive)

Compound: O=C(O)[C@H]1CCCC[C@H]1C(=O)NC(CN1C(=O)c2ccccc2C1=O)c1ccccc1 (stereo not given in full)
- AC50 [21]: > 52 µM (inactive)
